Measured values: paper PMC12017303 (Science Advances, 2025)

Tested on: α-HCoV 229E, β-HCoV OC43, MERS-CoV, SARS-CoV, SARS-CoV-2 variants (Delta, BA.2)
Type: cell-based
Details: read-out: EC50 against all tested variants

C#CCn1c(C)c(-n2nnc3ccccc32)c(=O)n(-c2cncc3ccccc23)c1=O [AVI-4516]
EC50: < 3000 nM
